Reference: patent US20130115671A1, “ENZYMES FROM CONIDIOBOLUS BREFELDIANUS AND PROCESS FOR PREPARATION THEREOF” (Council of Scientific and Industrial Research, priority 2010, published 2013)
Read-outs that look alike come from different tables or passages of the source.

What was measured:
[1] = system: protease from Conidiobolus brefeldianus MTCC 5185; test: Stability of protease in presence of organic solvents at 28° C.; format: physicochemical; set-up: key to residual activity of protease, 0 h / residual activity of protease, 12 h: % of initial activity with respective solvent (initial = 100%); conditions: crude protease, 20% (v/v) solvent
Protocol: This example illustrates the effect of water miscible as well as water immiscible organic solvents on stability of crude protease at 28° C. […] Samples were removed at different time intervals and residual activity was estimated. Sample without organic solvent served as control. Initial activity with respective solvents was taken as 100% (Table 17). […] (Table 17).

[2] = system: protease from Conidiobolus brefeldianus MTCC 5185; test: Stability of protease in presence of organic solvents at 37° C.; format: physicochemical; conditions: 20% (v/v) solvent; for Residual Activity (%) of protease, 30 min: pH 7, 30 min; for Residual Activity (%) of protease, 60 min: pH 7, 60 min; for Residual Activity (%) of protease, 120 min: pH 7, 120 min; for Residual Activity (%) of protease, 240 min: pH 7, 240 min; for Residual Activity (%) of protease, 0: crude protease, pH 7, 0 min
Protocol: This example illustrates the effect of water miscible as well as water immiscible organic solvents on stability of crude protease at 37° C. […] Samples were removed at different time intervals and residual activity was estimated. Sample without organic solvent served as control.

[3] = system: protease secreted by Conidiobolus brefeldianus MTCC 5185; test: Effect of metals on protease activity; format: biochemical
[4] = system: protease from Conidiobolus brefeldianus MTCC 5185
Protocol: This example illustrates the stability of the protease in presence of salts. […] Aliquots were removed at regular intervals of 30 min and residual activity was estimated at 50° C., pH 9.

[5] = system: protease of Conidiobolus brefeldianus MTCC 5185; test: Effect of inhibitors on protease activity (PMSF, EDTA, iodoacetate, DMSO); format: biochemical
Source text: This example illustrates the effect of inhibitors on protease activity of Conidiobolus brefeldianus MTCC 5185. Following inhibitors were studied: phenylmethylsulfonyl fluoride (PMSF), ethylene-diaminetetraacetic acid (EDTA), iodoacetic acid, and dimeth ylsulphoxide (DMSO). The crude culture filtrate grown as described in example 3 was concentrated by ultra-filtration on PM-10 and YM-3 membranes as described in example 27 and used for inhibition studies. Both the protease preparations were pre-incubated in 100 mM Tris-HCl buffer (pH 8.0) with each inhibitor for 1 h and the residual protease activity was measured at 50° C., pH 9.0. Protease without inhibitor served as control.

[6] = system: protease from Conidiobolus brefeldianus MTCC 5185; test: Stability of protease at 50° C. in presence of sugar alcohols; format: physicochemical; set-up: unit not given here
Protocol: Ultrafiltered protease as described in example 27 was incubated at 50° C. in presence of glycerol, mannitol, sorbitol and xylitol at 20% concentration up to 3 h. Aliquots were removed at regular intervals of 30 min and residual activity was estimated at 50° C., pH 9.

[7] = metal 5 mM in assay mixture, crude protease
[8] = pre-incubated 1 h, pH 8.0, 20 mM EDTA, 10 mM Iodoacetate, 1 mM PMSF (in DMSO), DMSO

CC(C)=O [Acetone, acetone]
residual activity of protease, 0 h [1]: 100
residual activity of protease, 5 h [1]: 95.66
residual activity of protease, 12 h [1]: 55.51
Residual Activity (%) of protease, 30 min [2]: 91.66%
Residual Activity (%) of protease, 60 min [2]: 81.10%
Residual Activity (%) of protease, 120 min [2]: 60.57%
Residual Activity (%) of protease, 240 min [2]: 29.53%
Residual Activity (%) of protease, 0 [2]: 100%

CC#N [Acetonitrile, acetonitrile]
residual activity of protease, 0 h [1]: 100
residual activity of protease, 5 h [1]: 98.31
residual activity of protease, 12 h [1]: 49.90
Residual Activity (%) of protease, 30 min [2]: 37.19%
Residual Activity (%) of protease, 60 min [2]: 36.40%
Residual Activity (%) of protease, 120 min [2]: 17.52%
Residual Activity (%) of protease, 240 min [2]: 13.45%
Residual Activity (%) of protease, 0 [2]: 100%

[Ca+2].[Cl-].[Cl-] [CaCl2, Calcium chloride]
Relative Activity (%) of protease [3]: 118.25%
effect on protease activity [3]: active
Residual Activity (%) of protease at 50° C. ([4]; 10 mM CaCl2, 0.5M NaCl, 0.5M glycine or 15% (NH4)2SO4, 0 min): 100.00%
Residual Activity (%) of protease at 50° C. ([4]; salt concentration as in column head, 30 min): 91.70%
Residual Activity (%) of protease at 50° C. ([4]; salt concentration as in column head, 60 min): 83.17%
Residual Activity (%) of protease at 50° C. ([4]; salt concentration as in column head, 90 min): 70.83%
Residual Activity (%) of protease at 50° C. ([4]; salt concentration as in column head, 120 min): 63.83%
Residual Activity (%) of protease at 50° C. ([4]; salt concentration as in column head, 180 min): 54.65%
Residual Activity (%) of protease at 50° C. ([4]; salt concentration as in column head, 180 min, listed as Calcium chloride): around 55%

[Cl][Cd][Cl] [CdCl2]
effect on protease activity ([3]; metal 5 mM): active
Relative Activity (%) of protease [3, 7]: 114.30%

[Cl-].[Cl-].[Co+2] [CoCl2]
Relative Activity (%) of protease [3]: 118.71%
effect on protease activity [3]: active

[Cl][Cu][Cl] [CuCl2]
Relative Activity (%) of protease [3, 7]: 12.78%

O=C(O)CN(CCN(CC(=O)O)CC(=O)O)CC(=O)O [EDTA, ethylene-diaminetetraacetic acid]
Inhibition (%) PM-10 Retentate [5, 8]: 0.0%
Inhibition (%) YM-3 Retentate [5, 8]: 3.93%

[Cl][Hg][Cl] [HgCl2]
effect on protease activity ([3]; metal 5 mM): totally inhibited
Relative Activity (%) of protease [3, 7]: 3.27%

O=C(O)CI [Iodoacetate, iodoacetic acid]
Inhibition (%) PM-10 Retentate ([5]; pH 8): 0.0%
Inhibition (%) YM-3 Retentate ([5]; pH 8): 16.54%

CC(C)O [Isopropanol, isopropanol]
residual activity of protease, 0 h [1]: 100
residual activity of protease, 5 h [1]: 100.29
residual activity of protease, 12 h [1]: 57.79
Residual Activity (%) of protease, 30 min [2]: 46.06%
Residual Activity (%) of protease, 60 min [2]: 34.35%
Residual Activity (%) of protease, 120 min [2]: 18.73%
Residual Activity (%) of protease, 240 min [2]: 17.11%
Residual Activity (%) of protease, 0 [2]: 100%

[Cl-].[K+] [KCl]
effect on protease activity ([3]; metal 5 mM): active
Relative Activity (%) of protease [3, 7]: 158.50%

OC[C@@H](O)[C@@H](O)[C@H](O)[C@H](O)CO [Mannitol, mannitol]
residual activity of protease at 50° C. ([6]; 20% sugar alcohol, 30 min): 74.06
residual activity of protease at 50° C. ([6]; 20% sugar alcohol, 60 min): 64.42
residual activity of protease at 50° C. ([6]; 20% sugar alcohol, 90 min): 58.13
residual activity of protease at 50° C. ([6]; 20% sugar alcohol, 120 min): 48.66
residual activity of protease at 50° C. ([6]; 20% sugar alcohol, 180 min): 40.71
residual activity of protease at 50° C. ([6]; ultrafiltered protease with 20% sugar alcohol, 0 min): 100

CO [Methanol, methanol]
residual activity of protease, 0 h [1]: 100
residual activity of protease, 5 h [1]: 100.13
residual activity of protease, 12 h [1]: 52.64
Residual Activity (%) of protease, 30 min [2]: 59.43%
Residual Activity (%) of protease, 60 min [2]: 59.45%
Residual Activity (%) of protease, 120 min [2]: 48.36%
Residual Activity (%) of protease, 240 min [2]: 16.60%
Residual Activity (%) of protease, 0 [2]: 100%
